The values below come from US10899753B2, “Inhibiting agents for Bruton's tyrosine kinase” (BIOGEN MA INC., priority 2018, dated 2021).

Test [1] has as its target T1, BTK (Homo sapiens (Human), UniProt Q06187). The test can be described thus: In Vitro BTK Kinase Assay: BTK-POLYGAT-LS ASSAY. The note with it: fluorescein-labeled polyGAT peptide 100 nM, BTK enzyme 0.25 nM, 30 minutes, TRF. In kind it is biochemical. The protocol: In Vitro BTK Kinase Assay: BTK-POLYGAT-LS ASSAY
The purpose of the BTK in vitro assay is to determine compound potency against BTK through the measurement of IC50. […] For a typical assay, a […] aliquot of a ATP/peptide master mix (final concentration; ATP […], polyGAT 100 nM) in kinase buffer (10 mM Tris-HCl pH 7.5, 10 mM MgCl2, 200 μM Na3PO4, 5 mM DTT, 0.01% Triton X-100, and 0.2 mg/ml casein) is added to each well. […] The assay is incubated for 30 minutes before being stopped with 28 μL of a 50 mM EDTA solution. […] The plate is covered and incubated for 45 minutes at room temperature. Time resolved fluorescence (TRF) on Molecular Devices M5 (332 nm excitation; 488 nm emission; 518 nm fluorescein emission) is measured.

Test [2] concerns the target T1, BTK. The test can be described thus: In Vitro PD Assay in Human Whole Blood (pBTK assay). In kind it is cell-based. To be noted: human heparinized whole blood, 37° C. for 30 min, total BTK capture and phosphotyrosine detection (ECL). The protocol: In Vitro PD Assay in Human Whole Blood
Human heparinized venous blood was purchased from Bioreclamation, Inc. or SeraCare Life Sciences and shipped overnight. Whole blood was aliquoted into 96-well plate and “spiked” with serial dilutions of test compound in DMSO or with DMSO without drug. The final concentration of DMSO in all wells was 0.1%. The plate was incubated at 37° C. for 30 min. Lysis buffer containing protease and phosphatase inhibitors was added to the drug-containing samples and one of the DMSO-only samples (+PPi, high control), while lysis buffer containing protease inhibitors was added to the other DMSO-only samples (−PPi, low control). All of the lysed whole blood samples were subjected to the total BTK capture and phosphotyrosine detection method described in US20160311802, incorporated herein by reference.

SMILES strings stand for the structures. pIC50: −log10 of the molar value. Some results are limits rather than exact numbers.

T1 sequence (Q06187 whole entry): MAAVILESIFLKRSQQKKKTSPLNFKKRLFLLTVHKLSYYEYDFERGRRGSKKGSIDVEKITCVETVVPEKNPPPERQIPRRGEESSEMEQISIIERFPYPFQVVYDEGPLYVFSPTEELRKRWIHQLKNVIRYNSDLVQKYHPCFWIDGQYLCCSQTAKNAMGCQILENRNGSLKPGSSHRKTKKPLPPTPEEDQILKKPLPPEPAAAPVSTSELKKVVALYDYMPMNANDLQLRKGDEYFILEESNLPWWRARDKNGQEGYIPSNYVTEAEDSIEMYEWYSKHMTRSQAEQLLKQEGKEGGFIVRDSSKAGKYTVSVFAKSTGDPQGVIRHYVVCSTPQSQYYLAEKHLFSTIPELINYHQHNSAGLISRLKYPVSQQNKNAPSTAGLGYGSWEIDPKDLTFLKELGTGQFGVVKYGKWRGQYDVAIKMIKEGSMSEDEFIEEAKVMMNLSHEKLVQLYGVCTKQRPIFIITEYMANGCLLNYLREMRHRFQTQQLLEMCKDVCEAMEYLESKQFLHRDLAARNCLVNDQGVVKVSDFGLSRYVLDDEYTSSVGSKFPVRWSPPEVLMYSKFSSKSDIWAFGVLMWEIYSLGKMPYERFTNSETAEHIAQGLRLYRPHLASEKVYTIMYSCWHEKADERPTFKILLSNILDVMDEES

With `Cc1c(CNC(=O)c2noc(C3(CF)CC3)n2)ccc(-c2ncnc(Nc3cnn(C)c3)n2)c1F` [Compound 50, N-(3-fluoro-2-methyl-4-(4-((1-methyl-1H-pyrazol-4-yl)amino)-1,3,5-triazin-2-yl)benzyl)-5-(1-(fluoromethyl)cyclopropyl)-1,2,4-oxadiazole-3-carboxamide], the negative-log IC50 (pIC50) (in general, −log10 of the IC50, conventionally taken in molar units) is above 9.00 at BTK [1] and above 7.00 against BTK [2].

With `Cc1cc(-c2ncnc(Nc3cnn(C)c3)n2)c(F)cc1CNC(=O)c1cc(C(C)(C)C)on1` [Compound 64, 5-(tert-butyl)-N-(5-fluoro-2-methyl-4-(4-((1-methyl-1H-pyrazol-4-yl)amino)-1,3,5-triazin-2-yl)benzyl)isoxazole-3-carboxamide], the results for the pIC50 against BTK [1] and against BTK [2] were above 9.00 and 5.00 to 6.30, respectively. In the same order, the values of `Cn1ccc(Nc2ncnc(-c3ccc(CNC(=O)c4nc(C(C)(C)C)no4)c(Cl)c3F)n2)n1` [Compound 22, 3-(tert-butyl)-N-(2-chloro-3-fluoro-4-(4-((1-methyl-1H-pyrazol-3-yl)amino)-1,3,5-triazin-2-yl)benzyl)-1,2,4-oxadiazole-5-carboxamide] are above 9.00 and 5.00 to 6.30. In the same order, the values of `Cn1ccc(Nc2ncnc(-c3ccc(CNC(=O)c4noc(C(C)(C)C)n4)c(Cl)c3F)n2)n1` [Compound 21, 5-(tert-butyl)-N-(2-chloro-3-fluoro-4-(4-((1-methyl-1H-pyrazol-3-yl)amino)-1,3,5-triazin-2-yl)benzyl)-1,2,4-oxadiazole-3-carboxamide] are above 9.00 and 6.30 to 7.00. In the same order, the values of `Cn1cc(Nc2ncnc(-c3ccc(CNC(=O)c4noc(C(C)(C)C)n4)c(C(F)(F)F)c3)n2)cn1` [Compound 17, 5-(tert-butyl)-N-(4-(4-((1-methyl-1H-pyrazol-4-yl)amino)-1,3,5-triazin-2-yl)-2-(trifluoromethyl)benzyl)-1,2,4-oxadiazole-3-carboxamide] are above 9.00 and 6.30 to 7.00.

For the compound `C[C@@H](NC(=O)c1noc(C(C)(C)C)n1)c1ccc(-c2ncnc(Nc3ccn(C)n3)n2)c(F)c1C(F)F` [Compound 82, (R)-5-(tert-butyl)-N-(1-(2-(difluoromethyl)-3-fluoro-4-(4-((1-methyl-1H-pyrazol-3-yl)amino)-1,3,5-triazin-2-yl)phenyl)ethyl)-1,2,4-oxadiazole-3-carboxamide], the negative-log IC50 (pIC50) was 8.00 to 9.00 against BTK [1] and 5.00 to 6.30 against BTK [2].

As to `Cn1ccc(Nc2ncnc(-c3ccc(CNC(=O)c4noc(C(C)(C)C)n4)c(C(F)(F)F)c3)n2)n1` [Compound 7, 5-(tert-butyl)-N-(4-(4-((1-methyl-1H-pyrazol-3-yl)amino)-1,3,5-triazin-2-yl)-2-(trifluoromethyl)benzyl)-1,2,4-oxadiazole-3-carboxamide], at BTK [1], the pIC50 was 8.00 to 9.00. Regarding `C[C@@H](NC(=O)c1nc(C(C)(C)C)no1)c1ccc(-c2ncnc(Nc3cnn(C)c3)n2)c(F)c1Cl` [Compound 70, (R)-3-(tert-butyl)-N-(1-(2-chloro-3-fluoro-4-(4-((1-methyl-1H-pyrazol-4-yl)amino)-1,3,5-triazin-2-yl)phenyl)ethyl)-1,2,4-oxadiazole-5-carboxamide], on BTK [2], the pIC50 is above 7.00. In the case of `Cc1cc(-c2ncnc(Nc3cnn(C)c3)n2)c(F)cc1CNC(=O)c1noc(C(C)(C)C)n1` [Compound 56, 5-(tert-butyl)-N-(5-fluoro-2-methyl-4-(4-((1-methyl-1H-pyrazol-4-yl)amino)-1,3,5-triazin-2-yl)benzyl)-1,2,4-oxadiazole-3-carboxamide], the figures for the pIC50 against BTK [1] and against BTK [2] were above 9.00 and 6.30 to 7.00, respectively. In the same order, the values of `Cn1ccc(Nc2ncnc(-c3ccc4c(c3F)CCCC[C@H]4NC(=O)c3noc(C(C)(C)C)n3)n2)n1` [Compound 111, (R)-5-(tert-butyl)-N-(1-fluoro-2-(4-((1-methyl-1H-pyrazol-3-yl)amino)-1,3,5-triazin-2-yl)-6,7,8,9-tetrahydro-5H-benzo[7]annulen-5-yl)-1,2,4-oxadiazole-3-carboxamide] are above 9.00 and 6.30 to 7.00. Take `Cc1cc(-c2ncnc(Nc3cnn(C)c3)n2)ccc1CNC(=O)c1cn(C(C)(C)C)nn1` [Compound 109, 1-(tert-butyl)-N-(2-methyl-4-(4-((1-methyl-1H-pyrazol-4-yl)amino)-1,3,5-triazin-2-yl)benzyl)-1H-1,2,3-triazole-4-carboxamide]: the negative logarithm of the IC50 (pIC50) is 8.00 to 9.00 against BTK [1] and 6.30 to 7.00 against BTK [2]. Take `Cn1ccc(Nc2ncnc(-c3ccc(CNC(=O)c4nc(C(C)(C)C)no4)c(C(F)(F)F)c3)n2)n1` [Compound 8, 3-(tert-butyl)-N-(4-(4-((1-methyl-1H-pyrazol-3-yl)amino)-1,3,5-triazin-2-yl)-2-(trifluoromethyl)benzyl)-1,2,4-oxadiazole-5-carboxamide]: on BTK [1], the pIC50 was 8.00 to 9.00. Take `Cn1cc(Nc2ncnc(-c3ccc4c(c3)CCCC[C@H]4NC(=O)c3nc(C(C)(C)C)no3)n2)cn1` [Compound 34, 3-tert-butyl-N-[(5R)-2-[4-[(1-methylpyrazol-4-yl)amino]-1,3,5-triazin-2-yl]-6,7,8,9-tetrahydro-5H-benzo[7]annulen-5-yl]-1,2,4-oxadiazole-5-carboxamide]: the negative logarithm of the IC50 (pIC50) at BTK [1] is above 9.00; against BTK [2], above 7.00. For `Cc1cc(-c2ncnc(Nc3cnn(C)c3)n2)ccc1CNC(=O)c1cc(C(C)(C)C)on1` [Compound 38], the negative logarithm of the IC50 (pIC50) against BTK [2] is 6.30 to 7.00. On the same count and under the same terms, next, `Cn1cc(Nc2ncnc(-c3ccc4c(c3)CN(C3COC3)CC[C@H]4NC(=O)c3cn(C(C)(C)C)nn3)n2)cn1` [Compound 24, 1-tert-butyl-N-[(5R)-8-[4-[(1-methylpyrazol-4-yl)amino]-1,3,5-triazin-2-yl]-2-(oxetan-3-yl)-1,3,4,5-tetrahydro-2-benzazepin-5-yl]triazole-4-carboxamide]: above 7.00. At BTK [1], `C[C@@H](NC(=O)c1nc(C(C)(C)C)no1)c1ccc(-c2ncnc(Nc3ccn(C)n3)n2)c(F)c1C(F)F` [Compound 83, (R)-3-(tert-butyl)-N-(1-(2-(difluoromethyl)-3-fluoro-4-(4-((1-methyl-1H-pyrazol-3-yl)amino)-1,3,5-triazin-2-yl)phenyl)ethyl)-1,2,4-oxadiazole-5-carboxamide] had a pIC50 of 8.00 to 9.00. Consider `Cc1cc(-c2ncnc(Nc3cnn(C)c3)n2)ccc1CNC(=O)c1noc(C2[C@@H](C)[C@H]2C)n1` (stereo partly drawn) [Compound 41, 5-(2,3-cis-dimethylcyclopropyl)-N-(2-methyl-4-(4-((1-methyl-1H-pyrazol-4-yl)amino)-1,3,5-triazin-2-yl)benzyl)-1,2,4-oxadiazole-3-carboxamide], for which the pIC50 against BTK [2] was 5.00 to 6.30. The compound `Cn1ccc(Nc2ncnc(-c3ccc(CNC(=O)c4noc(C(C)(C)C)n4)c(C(F)(F)F)c3F)n2)n1` [Compound 19, 5-(tert-butyl)-N-(3-fluoro-4-(4-((1-methyl-1H-pyrazol-3-yl)amino)-1,3,5-triazin-2-yl)-2-(trifluoromethyl)benzyl)-1,2,4-oxadiazole-3-carboxamide] showed a pIC50 against BTK [1] of 8.00 to 9.00. Same read-out and setting: next, `Cc1cc(-c2ncnc(Nc3cnn(C)c3)n2)ccc1CNC(=O)c1nnc(C(C)(C)C)o1` [Compound 110, 5-(tert-butyl)-N-(2-methyl-4-(4-((1-methyl-1H-pyrazol-4-yl)amino)-1,3,5-triazin-2-yl)benzyl)-1,3,4-oxadiazole-2-carboxamide]: 8.00 to 9.00; `Cn1cc(Nc2ncnc(-c3ccc(CNC(=O)c4nc(C(C)(C)C)no4)c(C(F)(F)F)c3)n2)cn1` [Compound 18, 3-(tert-butyl)-N-(4-(4-((1-methyl-1H-pyrazol-4-yl)amino)-1,3,5-triazin-2-yl)-2-(trifluoromethyl)benzyl)-1,2,4-oxadiazole-5-carboxamide]: above 9.00.

`Cn1ccc(Nc2ncnc(-c3ccc4c(c3)CN(CC(F)(F)F)CC[C@H]4NC(=O)c3noc(C(C)(C)C)n3)n2)n1` [Compound 25, 5-tert-butyl-N-[(5R)-8-[4-[(1-methylpyrazol-3-yl)amino]-1,3,5-triazin-2-yl]-2-(2,2,2-trifluoroethyl)-1,3,4,5-tetrahydro-2-benzazepin-5-yl]-1,2,4-oxadiazole-3-carboxamide] gave a negative-log IC50 (pIC50) against BTK [2] above 7.00. Consider `Cn1ccc(Nc2ncnc(-c3ccc(CNC(=O)c4noc(C(C)(C)C)n4)c(CC(F)F)c3)n2)n1` [Compound 67, 5-(tert-butyl)-N-(2-(2,2-difluoroethyl)-4-(4-((1-methyl-1H-pyrazol-3-yl)amino)-1,3,5-triazin-2-yl)benzyl)-1,2,4-oxadiazole-3-carboxamide], for which the negative-log IC50 (pIC50) against BTK [1] was 8.00 to 9.00. Turning to `Cc1c(CNC(=O)c2nc(C(C)(C)C)no2)ccc(-c2ncnc(Nc3ccn(C)n3)n2)c1F` [Compound 10, 3-(tert-butyl)-N-(3-fluoro-2-methyl-4-(4-((1-methyl-1H-pyrazol-3-yl)amino)-1,3,5-triazin-2-yl)benzyl)-1,2,4-oxadiazole-5-carboxamide], the pIC50 on BTK [1] is above 9.00.
